For the assay, the target named is T1, CCR2 (Homo sapiens, UniProt P41597).
T1 construct: host or cells: THP-1 cells
T1 sequence (P41597 1-360 isoform P41597-2): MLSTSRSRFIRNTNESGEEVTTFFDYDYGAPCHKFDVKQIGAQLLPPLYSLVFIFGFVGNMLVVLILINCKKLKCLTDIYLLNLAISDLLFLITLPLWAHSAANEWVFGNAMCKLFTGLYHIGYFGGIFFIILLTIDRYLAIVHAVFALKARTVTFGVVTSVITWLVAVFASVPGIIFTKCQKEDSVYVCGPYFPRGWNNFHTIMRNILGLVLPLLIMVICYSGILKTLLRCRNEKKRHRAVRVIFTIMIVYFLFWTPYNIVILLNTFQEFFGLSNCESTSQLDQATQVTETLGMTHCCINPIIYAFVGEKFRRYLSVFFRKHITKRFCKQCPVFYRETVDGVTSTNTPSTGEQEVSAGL
The assay is described as follows: MCP-1 Receptor Binding Assay in THP-1 Cells. Conditions: for IC50: THP-1 cells, 0.5 nM 125I labeled MCP-1, 2 hours at 30° C., read-out: Inhibition of MCP-1 Binding IC50; for inhibition at 25 µM: test concentration of 25 μM, given where an IC50 value was not obtained, read-out: Inhibition of MCP-1 Binding, percent inhibition. The procedure: THP-1 cells were obtained from American Type Culture Collection (Manassas, Va., USA). The THP-1 cells were grown in RPMI-1640 supplemented with 10% fetal bovine serum in a humidified 5% CO2 atmosphere at 37° C. The cell density was maintained […].
THP-1 cells were incubated with 0.5 nM ^125, labeled MCP-1 (Perkin-Elmer Life Sciences, Inc. Boston, Mass.) in the presence of varying concentrations of either unlabeled MCP-1 (R & D Systems, Minneapolis, Minn.) or test compound for 2 hours at 30° C. in a 96 well plate. Cells were then harvested onto a filter plate, dried, and 20 μL of Microscint 20 was added to each well. Plates were counted in a TopCount NXT, Microplate Scintillation & Luminescence Counter (Perkin-Elmer Life Sciences, Inc. Boston, Mass.). Blank values (buffer only) were subtracted from all values and drug treated values were compared to vehicle treated values. 1 μM cold MCP-1 was used for nonspecific binding.
Table 1 lists IC50 values for inhibition of MCP-1 binding to CCR2 obtained for test compounds of the invention.

One may read the IC50 as the concentration that inhibits the measured activity by half. Turning to `O=C(C(=O)N1CCC(c2ccc(Cl)cc2)CC1)C1CCN(C(=O)C=Cc2ccc(Cl)c(Cl)c2)CC1` [Compound 2, 1-[4-(4-chloro-phenyl)-piperidin-1-yl]-2-{1-[3-(3,4-dichloro-phenyl)-acryloyl]-piperidin-4-yl}-ethane-1,2-dione], the IC50 worked out at 4.4 µM. In the case of `O=C(/C=C/c1ccc(Cl)c(Cl)c1)N1CCC(C(O)C(=O)N2CCC(c3ccc(Cl)cc3)CC2)CC1` (stereo not drawn) [Compound 3], the IC50 was determined as 3.4 µM.

On to `O=C(c1cc(F)c(F)c(F)c1)N1CCC(C(O)CN2CCC(c3c[nH]c4ccccc34)CC2)CC1` (stereo not drawn) [Compound 8, (4-{1-hydroxy-2-[4-(1H-indol-3-yl)-piperidin-1-yl]-ethyl}-piperidin-1-yl)-(3,4,5-trifluoro-phenyl)-methanone], for which the IC50 was found to be 6.4 µM. The same measure, in the same setting: as for `O=C(CN1CCC(c2c[nH]c3ncccc23)CC1)C1CCN(C(=O)/C=C/c2cc(F)c(F)c(F)c2)CC1` [Compound 17, 1-(4-{2-[4-(1H-pyrrolo[2,3-b]pyridin-3-yl)-piperidin-1-yl]-acetyl}-piperidin-1-yl)-3-(3,4,5-trifluoro-phenyl)-propenone], the figure is 9.4 µM. Still for that read-out and setting: then `Cc1cccc(/C=C/C(=O)N2CCC(C(O)CN3CCC(c4cc[nH]n4)CC3)CC2)c1` (stereo not drawn) [Compound 33], with 1.4 µM; and `O=C(/C=C/c1cc(F)c(F)c(F)c1)N1CCC(C(O)CN2CCC(c3cc[nH]n3)CC2)CC1` (stereo not drawn) [Compound 35], with 1.2 µM; and `O=C(Nc1ccc(Cl)c(Cl)c1)N1CCC(C(O)CN2CCC(c3cc[nH]n3)CC2)CC1` (stereo not drawn) [Compound 36, 4-{1-hydroxy-2-[4-(1H-pyrazol-3-yl)-piperidin-1-yl]-ethyl}-piperidine-1-carboxylic acid (3,4-dichloro-phenyl)-amide], with 1.1 µM. Same read-out and setting: then `O=C(Nc1ccc(F)c(F)c1)N1CCC(C(O)CN2CCC(c3cc[nH]n3)CC2)CC1` (stereo not drawn) [Compound 37, 4-{1-hydroxy-2-[4-(1H-pyrazol-3-yl)-piperidin-1-yl]-ethyl}-piperidine-1-carboxylic acid (3,4-difluoro-phenyl)-amide], with 8.6 µM; and `CCOC(=O)C(CN1CCC(c2ccc(OC)cc2)CC1)C1CCN(C(=O)C=Cc2cc(F)c(F)c(F)c2)CC1` (stereo not drawn) [Compound 38, 3-[4-(4-methoxy-phenyl)-piperidin-1-yl]-2-{1-[3-(3,4,5-trifluoro-phenyl)-acryloyl]-piperidin-4-yl}-propionic acid ethyl ester], with 4.7 µM.

In general, inhibition refers to the drop in the measured response relative to a control, in per cent. Turning to `COc1ccc(C2CCN(CC(C(=O)O)C3CCN(C(=O)C=Cc4cc(F)c(F)c(F)c4)CC3)CC2)cc1` (stereo not drawn) [Compound 39, 3-[4-(4-methoxy-phenyl)-piperidin-1-yl]-2-{1-[3-(3,4,5-trifluoro-phenyl)-acryloyl]-piperidin-4-yl}-propionic acid], the inhibition at 25 µM amounted to 52%.

In the case of `O=C(/C=C/c1cc(F)cc(F)c1)N1CCC(C(O)CN2CCC(c3nc4ccccc4o3)CC2)CC1` (stereo not drawn) [Compound 46], the IC50 is 2.1 µM. The same measure, in the same setting: as for `Cc1cccc(/C=C/C(=O)N2CCC(C(O)CN3CCC(c4nc5ccccc5o4)CC3)CC2)c1` (stereo not drawn) [Compound 47], the figure is 3.9 µM. In the case of `CCOC(=O)C(CC1CCN(C(=O)C=Cc2cccc(C)c2)CC1)N1CCC(c2c[nH]c3ccccc23)CC1` (stereo not drawn) [Compound 48, 2-[4-(1H-indol-3-yl)-piperidin-1-yl]-3-[1-(3-m-tolyl-acryloyl)-piperidin-4-yl]-propionic acid ethyl ester], the inhibition at 25 µM worked out at 48%. As for `CCOC(=O)C(CC1CCN(C(=O)C=Cc2ccc(Cl)c(Cl)c2)CC1)N1CCC(c2c[nH]c3ccccc23)CC1` (stereo not drawn) [Compound 49, 3-{1-[3-(3,4-dichloro-phenyl)-acryloyl]-piperidin-4-yl}-2-[4-(1H-indol-3-yl)-piperidin-1-yl]-propionic acid ethyl ester], the inhibition at 25 µM came to 40%. The same measure, in the same setting: as for `CCOC(=O)C(CC1CCN(C(=O)C=Cc2cc(F)c(F)c(F)c2)CC1)N1CCC(c2c[nH]c3ccccc23)CC1` (stereo not drawn) [Compound 50, 2-[4-(1H-indol-3-yl)-piperidin-1-yl]-3-{1-[3-(3,4,5-trifluoro-phenyl)-acryloyl]-piperidin-4-yl}-propionic acid ethyl ester], the figure is 44%.

Source of the values: US20070197590A1, “SUBSTITUTED DIPIPERIDINE CCR2 ANTAGONISTS” (priority 2006, published 2007).
